Measurements taken from ChEMBL document CHEMBL4619724, “Environment-sensitive fluorescent inhibitors of histone deacetylase” (Bioorg Med Chem Lett, 2020).

Tests used:
Histone deacetylase = experiment: Inhibition of HDAC in human HeLa cell extracts assessed as inhibition of substrate deacetylation using Boc-Lys (acetyl)-AMC as substrate by fluorescence based assay
MOLT-4 [1] = experiment: Antiproliferative activity against human MOLT4 cells incubated for 24 hrs by CCK8 assay; assay type: functional, cell-based; settings: MOLT-4, 24 h
K562 = experiment: Antiproliferative activity against human K562 cells incubated for 24 hrs by CCK8 assay; assay type: functional, cell-based; settings: K562, 24 h
PC-3 = experiment: Antiproliferative activity against human PC3 cells incubated for 24 hrs by CCK8 assay; assay type: functional, cell-based; settings: PC-3, 24 h
A549 = experiment: Antiproliferative activity against human A549 cells incubated for 24 hrs by CCK8 assay; assay type: functional, cell-based; settings: A549, 24 h
MOLT-4 [2] = experiment: Induction of apoptosis in human MOLT4 cells assessed as increase in apoptotic cells at 5 uM incubated for 24 hrs by Annexin V and PE staining based flow cytometric analysis relative to control; assay type: functional
[3] = Drug uptake in cytoplasm in human PC3 cells overexpressing HDAC at 5 uM incubated for 30 mins by fluorescence microscopic method; assay type: ADME, subcellular; settings: pc-3, 0.5 h
[4] = Drug uptake in cytoplasm in human MOLT4 cells overexpressing HDAC at 5 uM incubated for 30 mins by fluorescence microscopic method; assay type: ADME, subcellular; settings: molt-4, 0.5 h
[5] = Drug uptake in cytoplasm in HEK293 cells harboring low HDAC expression at 5 uM incubated for 30 mins by fluorescence microscopic method; assay type: ADME, subcellular; settings: human, hek293, 0.5 h
[6] = Drug uptake in human MOLT4 cell membrane at 5 uM incubated for 30 mins by DID staining based confocal microscopic method; assay type: ADME; settings: molt-4, 0.5 h
[7] = Drug uptake in nucleus in human MOLT4 cells at 5 uM incubated for 30 mins by Hoechst 33342 staining based confocal microscopic method; assay type: ADME, subcellular; settings: molt-4, 0.5 h
[8] = Drug uptake in tumor tissue of nude mouse xenografted with human PC3 cells assessed as increase in fluorescence intensity at 10 uM by fluorescence upright microscopic method; assay type: ADME, tissue-based, Neoplasm, PC-3; settings: in vivo
[9] = Drug uptake in nude mouse skin assessed as increase in fluorescence intensity in tissue at 10 uM by fluorescence upright microscopic method; assay type: ADME, tissue-based, Zone of skin; settings: in vivo
[10] = Drug uptake in tumor tissue of nude mouse xenografted with human PC3 cells assessed as increase in fluorescence intensity in tumor tissue at 10 uM in presence of HDAC inhibitor, SAHA by fluorescence upright microscopic method; assay type: ADME, tissue-based, Neoplasm, PC-3; settings: in vivo
[11] = Drug uptake in nude mouse thigh muscles assessed as increase in fluorescence intensity in tissue at 10 uM by fluorescence upright microscopic method; assay type: ADME, tissue-based, Thigh muscle; settings: in vivo

Structure (SMILES)	IC50 (Histone deacetylase)	IC50 (MOLT-4 [1])	IC50 (K562)	IC50 (PC-3)	IC50 (A549)	Activity (MOLT-4 [2])	other results
CC(C)CC(NC(=O)NCCCCCNc1ccc(S(=O)(=O)N(C)C)c2nonc12)C(=O)NO (configuration not stated)	> 100 µM						
CN(C)S(=O)(=O)c1ccc(NCCCCCC(=O)NO)c2nonc12		3.55 µM	15.2 µM	31.2 µM	> 100 µM	23.3%	
CN(C)S(=O)(=O)c1ccc(NCCCCCNC(=O)NCC(=O)NO)c2nonc12	7.58 µM						
CN(C)S(=O)(=O)c1ccc(NCCCCCCC(=O)NO)c2nonc12		7.84 µM	11 µM	52.6 µM	> 100 µM	20.02%	Drug uptake [3]: Active; Drug uptake [4]: Active; Drug uptake [5]: Not Active; Drug uptake [6]: 62.1%; Drug uptake [7]: Not Active; Drug uptake [8]: Active; Drug uptake [9]: Not Active; Drug uptake [10]: Not Active; Drug uptake [11]: Not Active
O=C(CCCCCCC(=O)Nc1ccccc1)NO [VORINOSTAT]						29.58%	
